# Literature values as cited in patent publication US20090252791A1, “PHARMACEUTICAL COMPOSITIONS COMPRISING A TRIPTAN AND A NONSTEROIDAL ANTI-INFLAMMATORY DRUG” (priority 2008, published 2009).
smiles,measurement,value
"CNS(=O)(=O)Cc1ccc2[nH]cc(CCN(C)C)c2c1 [Sumatriptan, 3-[2-(dimethylamino)ethyl]-N-methyl-1H-indole-5-methanesulfonamide]",Solubility in water and in saline,readily soluble
